Data taken from patent EP4506003A1, “HALOGEN DERIVATIVES OF (4´,5´- METHYLENEDIOXYPHENYL)-6,7-DIMETHOXY-1,2,3,4-TETRAHYDROISOQUINOLINE FOR USE IN THE TREATMENT OF LEUKEMIA” (S.Yu Yunusov Institute of Chemistry of Plant Substances of …, priority 2023, dated 2025).
Marks after values point to notes of the source that are not given here.

Tests used:
[1] = system: lung cancer H460; settings: cited from earlier work
[2] = system: cervical carcinoma cells; settings: read-out: CE50 dose; cited from earlier work
[3] = system: CCRF-CEM (CCL-119) (T-lymphoblastic leukemia); assay: MTT cytotoxicity on CCRF-CEM cells; assay type: cell-based; settings: Homo sapiens, 24 hours
Description: (§1) The cytotoxic properties of the compounds were determined in vitro using the MTT method in 96-well plates (Costar, USA). […] Rat liver hepatocytes were obtained according to the method, human blood mononuclear cells - according to [23]. Fibroblast cells were obtained according to the method of [24] with some modifications. Cell cultures were subcultured into 96-well plates according to the method of [21] by adding 100 μl of nutrient medium. The CCRF-CEM suspension culture was poured into a tube, centrifuged at 800 rpm for 10 minutes, and the supernatant was discarded. […] Data obtained in 3 independent experiments were expressed as the mean value for each concentration ± standard error of the mean, relative to the control values (cells without test compounds). The cytotoxic effect of each of the studied compounds was compared with the effect of the cytostatic Cisplatin-Naprod (India), containing cisplatin as an active component. Table 1: IC50 μM value for test compounds

[4] = system: fibroblasts; assay: MTT cytotoxicity on fibroblasts; assay type: cell-based; settings: Fibroblast, 24 hours
Description: as §1

[5] = system: Rat liver hepatocytes; assay: MTT cytotoxicity on hepatocytes; assay type: cell-based; settings: Rattus norvegicus, Hepatocyte, 24 hours
Description: as §1

[6] = Acute toxicity study (LD50); settings: mouse, in vivo, ip
Description: (§2) We studied the acute toxicity of compound F1 in vivo. The experiments were carried out on outbred white mice of both sexes weighing 18-20 g (24 pcs.). The animals were divided into groups of 12 mice each. The compound was dissolved in DMSO and then adjusted to the desired concentration with 0.9% NaCl solution and administered intraperitoneally and subcutaneously in a dose range from 5.0 to 200.0 mg/kg. […] The maximum relative error of the applied dose was no more than 5%.
as §2, with “F2” for “F1”, “brought” for “adjusted”, “subcutaneously to animals” for “subcutaneously”, “administered” for “applied”

[7] = system: outbred white mice; assay: Acute toxicity study (LD50)
Description: as §2
as §2, with “F2” for “F1”, “brought” for “adjusted”, “subcutaneously to animals” for “subcutaneously”, “administered” for “applied”

[8] = system: blood of patients with leukemia (combined group); assay: Hemogram of blood of patients with leukemia (combined group) after exposure; assay type: cell-based
Description: (§3) The effect of compounds F1 and F2 was studied on biological material (blood) of patients with hematological malignancies (leukemia), as well as for individual nosologies, in particular, patients with leukemia (combined group) (n=224), T-ALL (n=84), B-ALL (n=100), ALL (n=100), AML (n= 98), AML (n=94) and AML (n= 98) were studied. A total of 798 blood samples from patients with leukemia were examined.
(§4) The drugs Cytosar (Alexan) (Ebewe Pharma, Austria) and doxorubicin (Naprod, Mumbai, India) recommended by WHO for the treatment of the above oncohematological diseases were used as comparison drugs.
(§5) 5 ml of venous blood from sick and conditionally healthy individuals were collected into Vacutainer tubes with the addition of EDTA (Himedia, India).
(§6) The resulting blood was divided into aliquots of 1 ml and 10 µl (10 µg/ml) of the studied drugs (cytosar, doxorubicin, F1 and F2) were added to each tube.

[9] = system: blood of patients with T-ALL; assay: Hemogram of blood of patients with T-ALL after exposure; assay type: cell-based
Description: as §3, §4, §5, §6

[10] = system: blood of patients with B-ALL; assay: Hemogram of blood of patients with B-ALL after exposure; assay type: cell-based
Description: A total of 798 blood samples from patients with leukemia were examined.
as §4, §5, §6

[11] = system: blood of patients with ALL; assay: Hemogram of blood of patients with ALL after exposure; assay type: cell-based
Description: as §3, §5, §6

[12] = system: blood of patients with AML; assay: Hemogram of blood of patients with AML after exposure (Example 12, Table 9); assay type: cell-based
Description: as §4, §5, §6

[13] = system: blood of patients with AML; assay: Hemogram of blood of patients with AML after exposure (Example 13, Table 10; also OMML); assay type: cell-based
Description: as §4, §5, §6

[14] = system: blood of patients with AML; assay: Hemogram of blood of patients with AML after exposure (Example 14, Table 11); assay type: cell-based
Description: as §3, §4, §5, §6

[15] = AML (Table 9), 10 µg/ml, 3 hours, 37.0°C
[16] = AML (Example 13), compared with doxorubicin
[17] = AML (Table 10), 10 µg/ml, 3 hours, 37.0°C
[18] = AML (Example 14), compared to cytosar
[19] = AML (Table 11), 10 µg/ml, 3 hours, 37.0°C

C/C=C(/C)C(=O)OC[C@H]1C2=C(C[C@H]3[C@H]4C5=C(C[C@@H]([C@H](C#N)N13)N4C)C(=O)C(C)=C(OC)C5=O)C(=O)C(C)=C(OC)C2=O [renieramycin M]
IC50 [1]: 40 µM

CS(=O)(=O)N1CCC(Nc2n[nH]c3c2nc(-c2c(F)cccc2F)c2cc(C(N)=O)ccc23)CC1 [5-(2,6-difluorophenyl)-3-{[1-(methylsulfonyl)piperidin-4-yl]amino}-1H-pyrazolo[4,3-c]isoquinoline-7-carboxamide]
EC50 [2]: 0.259 µM

COc1cc2c(cc1OC)C(c1cc3c(cc1Br)OCO3)NCC2 (stereo not shown) [Compound F1, 1-(2'-bromo-4',5'-methylenedioxyphenyl)-6,7-dimethoxy-1,2,3,4-tetrahydroisoquinoline]
IC50 [3]: 36.6 µM | IC50 [4]: > 100 µM | IC50 [5]: > 100 µM | LD50 at 168 h [6]: 240 ± 13.8 mg/kg | toxicity class ([7]; classified from LD50): toxicity class 3 (moderately toxic) | LD50 dose ([7]; intraperitoneal, mice, observed for a week, 10080 min): 240,0±13,8 mg/kg | LD50 value, times higher than cytosar (cytarabine) ([7]; relative to cytosar): 57 times | LD50 value, times higher than doxorubicin ([7]; relative to doxorubicin): 22 times | Band (s/n) neutrophils ([8]; 10 µg/ml, 3 hours, 37.0°C): 2,5±0,3 % | Blasts ([8]; 10 µg/ml, 3 hours, 37.0°C): 65,7±2,3 % | Destroyed cells ([8]; 10 µg/ml, 3 hours, 37.0°C): 14,8±1,8*^ # % | Eosinophils ([8]; 10 µg/ml, 3 hours, 37.0°C): 4,0±0,6 % | Lymphocytes ([8]; 10 µg/ml, 3 hours, 37.0°C): 12,0±0,9% | Monocytes ([8]; 10 µg/ml, 3 hours, 37.0°C): 4,9±0,6 % | Myelocytes ([8]; 10 µg/ml, 3 hours, 37.0°C): 4,0±0,5 % | Promyelocytes ([8]; 10 µg/ml, 3 hours, 37.0°C): 5,0±0,6^ % | Segmented (s/i) neutrophils ([8]; 10 µg/ml, 3 hours, 37.0°C): 7,0±0,8% | decrease in the content of blasts ([8]; versus Control group): 10.7% | increase in the percentage of neutrophils ([8]; versus control): 1.8 times | increase in the proportion of destroyed cells ([8]; versus control): 9.3% | increase in the proportion of eosinophils ([8]; versus control): 2.7 times | Band (s/n) neutrophils ([9]; 10 µg/ml, 3 hours, 37.0°C): 0.0±0.0% | Blasts ([9]; 10 µg/ml, 3 hours, 37.0°C): 68,9±1,7 % | Destroyed cells ([9]; 10 µg/ml, 3 hours, 37.0°C): 16,9±1,1*^ # % | Eosinophils ([9]; 10 µg/ml, 3 hours, 37.0°C): 0,0±0,6% | Lymphocytes ([9]; 10 µg/ml, 3 hours, 37.0°C): 9,1±1,0% | Monocytes ([9]; 10 µg/ml, 3 hours, 37.0°C): 1,3±0,3 % | Myelocytes ([9]; 10 µg/ml, 3 hours, 37.0°C): 0,0±0,0% | Promyelocytes ([9]; 10 µg/ml, 3 hours, 37.0°C): 0,0±0,0% | Segmented (s/i) neutrophils ([9]; 10 µg/ml, 3 hours, 37.0°C): 3.9±0,4 % | decrease in p/i neutrophils ([9]; comparator not stated): 1.7 times | increase in the proportion of destroyed cells ([9]; compared with cytosar): 1.9 times | increase in the proportion of destroyed cells ([9]; compared with doxorubicin): 1.3 times | decrease in the content of blasts [10]: 1.16 times | increase in the proportion of destroyed cells [10]: 4.1 times | Band (s/n) neutrophils ([10]; 10 µg/ml, 3 hours, 37.0°C): 1,4±0,4% | Blasts ([10]; 10 µg/ml, 3 hours, 37.0°C): 59,0±2,9 % | Destroyed cells ([10]; 10 µg/ml, 3 hours, 37.0°C): 12,6±2,0 % | Eosinophils ([10]; 10 µg/ml, 3 hours, 37.0°C): 0,2±0,1% | Lymphocytes ([10]; 10 µg/ml, 3 hours, 37.0°C): 13,5±1,7 % | Monocytes ([10]; 10 µg/ml, 3 hours, 37.0°C): 3,5±0,8 % | Myelocytes ([10]; 10 µg/ml, 3 hours, 37.0°C): 0,5±0,2% | Promyelocytes ([10]; 10 µg/ml, 3 hours, 37.0°C): 0,0±0,0% | Segmented (s/i) neutrophils ([10]; 10 µg/ml, 3 hours, 37.0°C): 9,4±0,9 % | Band (s/n) neutrophils ([11]; 10 µg/ml, 3 hours, 37.0°C): 0,3±0,1% | Blasts ([11]; 10 µg/ml, 3 hours, 37.0°C): 68,4±2,7*^ % | Destroyed cells ([11]; 10 µg/ml, 3 hours, 37.0°C): 12,9±1,7*^ % | Eosinophils ([11]; 10 µg/ml, 3 hours, 37.0°C): 0,0±0,0% | Lymphocytes ([11]; 10 µg/ml, 3 hours, 37.0°C): 12,6±1,1 % | Monocytes ([11]; 10 µg/ml, 3 hours, 37.0°C): 1,8±0,4% | Myelocytes ([11]; 10 µg/ml, 3 hours, 37.0°C): 0,0±0,0% | Promyelocytes ([11]; 10 µg/ml, 3 hours, 37.0°C): 0,0±0,0% | Segmented (s/i) neutrophils ([11]; 10 µg/ml, 3 hours, 37.0°C): 4,2±1,0 % | percentage of destroyed cells higher ([11]; compared to cytosar): 2.7 times | difference in the level of blast cells ([11]; compared with cytosar): 1.15 times | decrease in the percentage of blasts ([12]; AML (Example 12)): 1.2 times | increase in the level of destroyed cells ([12]; AML (Example 12)): 4.5 times | increase in the proportion of mature differentiated neutrophils ([12]; AML (Example 12)): 2.6 times | increase in the percentage of destroyed cells ([12]; AML (Example 12), compared with cytosar): 2.0 times | decrease in the percentage of destroyed cells ([12]; AML (Example 12), compared with doxorubicin): 2.3 times | Band (s/n) neutrophils [12, 15]: 1,2±0,3% | Blasts [12, 15]: 63,6±2,3 % | Destroyed cells [12, 15]: 12,7±1,2*^ # % | Eosinophils [12, 15]: 0,4±0,2% | Lymphocytes [12, 15]: 10,7±1,1% | Monocytes [12, 15]: 3,0±0,7% | Myelocytes [12, 15]: 1,2±0,6% | Promyelocytes [12, 15]: 0,3±0,2% | Segmented (s/i) neutrophils [12, 15]: 7,0±0,7 % | decrease in the percentage of myelocytes ([13]; AML (Example 13)): 2.5 times | decrease in the proportion of blasts ([13]; AML (Example 13)): 1.6% | increase in the proportion of destroyed cells ([13]; AML (Example 13)): 5.3 times | increase in the proportion of neutrophils ([13]; AML (Example 13)): 2.0 times | proportion of destroyed cells higher ([13]; AML (Example 13), compared with Cytosar): 2.4 times | myelocytes lower [13, 16]: 1.5 times | proportion of destroyed cells higher [13, 16]: 1.2 times | percentage of myelocytes lower ([13]; AML (Example 13), relative to cytosar): 6.15 times | Band (s/n) neutrophils [13, 17]: 2,8±0,3% | Blasts [13, 17]: 51,1±2,2% | Destroyed cells [13, 17]: 18,7±1,3*^ # % | Eosinophils [13, 17]: 0,8±0,3% | Lymphocytes [13, 17]: 6,2±0,6% | Monocytes [13, 17]: 1,4±0,2 % | Myelocytes [13, 17]: 2,6±0,5 % | Promyelocytes [13, 17]: 0,0±0,0% | Segmented (s/i) neutrophils [13, 17]: 16,6±1,3 % | percentage of blasts lower [14, 18]: 4.1% | percentage of monocytes lower [14, 18]: 2.4 times | percentage of destroyed cells higher ([14]; AML (Example 14), than after Cytosar): 1.8 times | Band (s/n) neutrophils [14, 19]: 1,6±0,5% | Blasts [14, 19]: 55,4±3,1 % | Destroyed cells [14, 19]: 22,6±2,3*^ % | Eosinophils [14, 19]: 0,0±0,0% | Lymphocytes [14, 19]: 10,1±1,0% | Monocytes [14, 19]: 2.0±0,6^ % | Myelocytes [14, 19]: 0,9±0,3% | Promyelocytes [14, 19]: 0,0±0,0% | Segmented (s/i) neutrophils [14, 19]: 9,6±1,7%
